Experimental data from patent US5639745A, “Fused-bicyclic lactams as interleukin-1β converting enzyme inhibitors” (Sanofi, priority 1995, dated 1997).

Key:
[1] = tested on: mature IL-1β release from human monocytes; test: human monocyte pulse chase assay, inhibition of release of mature IL-1β (called In Vivo Assay); type: cell-based; settings: human monocytes stimulated with fixed S. aureus
Procedure: In vivo inhibition (IC50) was determined as follows:
Human monocytes were isolated from heparinized leukopheresis units obtained through Biological Specialty Corporation (Lansdale, Pa.). Monocytes were purified by Ficoll-Hupaque (Pharmacia Fine Chemicals, Piscataway, N.J.) gradient centrifugation and more than 95% pure monocyte populations obtained by centrifugal elutriation. The assay was performed on duplicate samples of freshly isolated human monocytes, cultured in suspension at 37° C. and rotated gently in conical bottom polypropylene tubes (Sardstedt Inc., Princeton, N.J.). Human monocytes at a concentration of 5×10^6 cells/mL were resuspended in 1 mL of RPMI 1640 (a common tissue buffer from M. A. Bioproducts, Walkersville, Md.) containing 1% fetal calf serum (FCS) (HyClone, Logan, Utah) and 50 μg/mL gentamycin (Gibco, Grand Island, N.Y.). The cells were treated either with a compound of the invention (i.e. test compound) or with a non-inhibitor (control compound, typically 0.03% DMSO) for 15 minutes and then activated with 0.01% fixed Staphylococcus aureus (The Enzyme Center, Malden, Mass.) for 1 hour. The cells were then centrifuged and resuspended in 1 mL of cysteine, methionine-free RPMI media containing 1% dialyzed FCS (Hyclone). The cells were pretreated with a test compound or control compound for 15 minutes after which 0.01% fixed S. aureus plus 100 μCi Tran 35-S label (ICN, Irvine, Calif.) was added and the cells incubated at 37° C. for 1 hour. After incubation, cells were centrifuged, washed once in phosphate buffer saline and resuspended in 1 mL RPMI containing 1% fetal calf serum. The cells were again pretreated with a test or control compound for 15 minutes and then 0.01% S. aureus for 2 hours. At the end of the incubation, cells were centrifuged and supernates saved for immunoprecipitation. Cells were washed once in phosphate buffer saline and then lysed in RIPA, a continuous cell media buffer containing 2 mM phenylmethylsulfonyl fluoride, 10 mM iodoacetate, 1 μg/mL pepstatin A, 1 μg/mL leupeptin and 0.5 TIU aprotinin.
For the immunoprecipitations, an equal volume of 1% dry milk in RIPA buffer plus 50 μL of resuspended protein A sepharose CL-4B (Pharmacia, Piscataway, N.Y.) was added to supernates and 1 mL of 4% dry milk containing protein A sepharose CL-4B to cell lysates and samples rotated for 30 minutes at 4° C. Beads were then centrifuged down, samples transferred to fresh tubes and incubated overnight with 40 μg rabbit anti-human IL-1β polyclonal antibody (Genzyme, Cambridge, Mass.). The IL-1β proteins were then precipitated with 70 μL protein A sepharose, resuspended in 60 μL SDS sample buffer and run on 15% SGD-PAGE gels. Autoradiography was performed on dried gels and the amount of radioactivity (counts per minute, cpm) quantitated using a Betascope 603 analyzer.
In the monocyte pulse chase assay, each test parameter was run in duplicate. Data was collected from the Beta Scope using a personal computer, then transferred to the VAX system for calculation of mean cpm and standard deviation of the mean. When test compounds were evaluated, the percent inhibition of release of mature IL-1β was calculated as follows:
100×[1-(cells treated with stimuli+test compound-unstimulated cells)/(cells treated with stimuli+control compound-unstimulated cells)]
These % inhibition values were then used to calculate IC50 value for each compound. Since the human monocyte pulse chase assay uses primary cells from different donors, each test compound was run in 2-3 separate experiments, using monocytes from 2-3 different donors.

ICE (IL-1β protease) = target: T1, ICE (IL-1β protease) (Homo sapiens, UniProt P29466); test: modified in vitro enzyme assay, reversible Ki* for ICE (Succinyl-Tyr-Val-Ala-Asp-amino methylcoumarin substrate); type: biochemical; settings: aldehydes
T1 sequence (P29466 120-297 limits assumed): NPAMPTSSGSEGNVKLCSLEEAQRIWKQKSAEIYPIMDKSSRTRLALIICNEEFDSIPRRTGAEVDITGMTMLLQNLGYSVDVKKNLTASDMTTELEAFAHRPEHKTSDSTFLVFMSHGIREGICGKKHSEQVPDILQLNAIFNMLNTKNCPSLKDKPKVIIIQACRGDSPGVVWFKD
T1 sequence (P29466 317-404 limits assumed): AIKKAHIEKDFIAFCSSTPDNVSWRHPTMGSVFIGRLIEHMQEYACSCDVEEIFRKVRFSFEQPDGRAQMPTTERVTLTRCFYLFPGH
Procedure: Second order rates of inactivation were obtained by using the enzyme assay described in Dolle, R. E.; et al., J. Med Chem. (1994), 37, 563. […] In the case of these reversible inhibitors, the in vitro assay was modified to obtain the reversible Ki * as follows:
Ki * values for reversible inhibitors were determined by preincubating ICE with various concentrations of inhibitor in 10 mM HEPES (a common laboratory buffer; pH 7.5), 25% glycerol, 1 mM dithiothreitol for 30 minutes at 37 ° C. in a polystyrene 96-well plate. Remaining ICE activity was measured by adding 10 uM Succinyl-Tyrosine-Valine-Alanine-Aspartic acid-amino methylcoumarin (Bachem Bioscience, Inc.) and monitoring the increase in fluorescence at 37° C. using a Fluoroskan II fluorescence plate reader. The Ki * was calculated from a plat of 1/v versus I as described previously (Morrison, J. F. and Cleland, W. W. (1983) Biochemistry 22, 5507-5513.

IL-1 receptor [2] = settings: colitis model; cited from earlier work
[3] = tested on: acute myelogenous leukemia cells; settings: cited from earlier work
IL-1 receptor [4] = settings: PG-APS arthritis, rats; cited from earlier work
IL-1 receptor [5] = settings: open-label human trial, subcutaneous; cited from earlier work
[6] = tested on: chronic myelogenous leukemia cells; settings: cells removed from chronic myelogenous leukemia patients; cited from earlier work

Compound | IC50 [1] [µM] | mode of inhibition / binding kinetics (ICE (IL-1β protease)) | tissue necrosis and number of inflammatory cells in the colon (IL-1 receptor [2]) | blast proliferation inhibition [3] | joint swelling (IL-1 receptor [4]) | efficacy in Rheumatoid Arthritis (IL-1 receptor [5]) | colony growth inhibition [6]
O=C[C@H](CC(=O)O)NC(=O)[C@@H]1CCCN2C(=O)CC[C@H](NC(=O)OCc3ccccc3)C(=O)N12 [Example 2] | < 10 | reversible inhibitors and display slow binding kinetics | – | – | – | – | –
O=C[C@H](CC(=O)O)NC(=O)[C@@H]1CCCN2C(=O)CC[C@H](NC(=O)c3ccc(OCC(=O)O)cc3)C(=O)N12 [Example 22] | < 10 | reversible inhibitors and display slow binding kinetics | – | – | – | – | –
IL-1ra: IL-1 receptor antagonist | – | – | reduced tissue necrosis and the number of inflammatory cells in the colon | Inhibition of Acute Myelogenous Leukemia Blast Proliferation | supresses joint swelling | shows efficacy | inhibit colony growth
O=C[C@H](CC(=O)O)NC(=O)[C@@H]1CCCN2C(=O)CC[C@H](NC(=O)c3ccccc3)C(=O)N12 [Example 21] | < 10 | reversible inhibitors and display slow binding kinetics | – | – | – | – | –
